Square brackets hold non-standard residues; d marks the D form. Peptide text beside a SMILES is read from it. * marks the point of attachment. Ala(1H-tetrazol-5-yl) = N[C@@H](Cc1nnn[nH]1)C(=O)O; Ms = CS(=O)(=O)*
Assays:
[1] = Peptide stability test, Tris buffer (pH 7.0), 60° C. storage, HPLC remaining rate; assay type: physicochemical; conditions: 100 μM in Tris buffer pH 7.0
Procedure, shortened: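 Peptides at 100 μM in Tris buffer (pH 7.0) stored 1 or 2 weeks at 60° C.; unstored sample kept at −30° C. as initial reference. Remaining peptide quantified by reversed-phase HPLC at 220 nm (formic acid/acetonitrile gradient, 40° C. column), as water-corrected remaining rate.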

[2] = molecular target: T1, PAC1R (Homo sapiens, UniProt P41586); assay: cAMP assay in PAC1R high-expressing CHO-K1 cell line; assay type: cell-based; conditions: Table 12; cAMP inducing effect, CHO-K1 PAC1R high-expressing cells
T1 construct: host or cells: CHO-K1
T1 sequence (P41586 21-468): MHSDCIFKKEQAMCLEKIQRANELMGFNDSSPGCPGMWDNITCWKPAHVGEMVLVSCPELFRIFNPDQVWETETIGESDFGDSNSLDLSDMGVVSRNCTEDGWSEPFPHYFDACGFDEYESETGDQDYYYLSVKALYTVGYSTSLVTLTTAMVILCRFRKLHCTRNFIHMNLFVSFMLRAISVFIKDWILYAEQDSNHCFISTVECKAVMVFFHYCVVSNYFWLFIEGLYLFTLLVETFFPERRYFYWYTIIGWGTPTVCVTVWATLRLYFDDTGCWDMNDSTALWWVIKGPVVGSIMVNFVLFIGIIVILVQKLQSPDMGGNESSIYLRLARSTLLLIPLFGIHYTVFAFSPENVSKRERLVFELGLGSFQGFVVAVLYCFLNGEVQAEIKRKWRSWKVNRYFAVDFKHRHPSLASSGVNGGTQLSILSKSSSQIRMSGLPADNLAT
Method: The cells were cultured for 18 to 24 hours at 37° C. in a 5% C02 incubator, adhering the cells to the plate. […] A 5-fold dilution series was then prepared with the same Cell assay buffer and used in an assay. The cAMP assay was carried out using a Hit Hunter cAMP Assay for Biologics kit (product of DiscoveRx, Cat. No. 90-0075LM25), according to the included kit instructions. […] Next, the culture medium was removed from the CHO-K1 cell culture plate, washing was performed with PBS, and the peptide-cAMP antibody liquid mixtures were added to the cells and incubated for 30 minutes under a 5% CO2 atmosphere at 37° C. A working detection solution was then added and the culture plate was shielded from light with aluminum foil and incubated at 25° C. for 1 hour. After incubation, Solution A was added and the culture plate was shielded from light with aluminum foil and then incubated at 25° C. for 3 hours. […] The obtained value for the Relative Luminescence Unit (RLU) was analyzed with GraphPad Prism Ver 6.05 (product of Graph Pad) and the EC50 value was calculated for each peptide. […] FIG. 2 and Table 11. […] A 5-fold dilution series was then prepared with the same Cell assay buffer and used in an assay. […] A 5-fold dilution series was then prepared with the same Cell assay buffer and used in an assay.

[3] = system: rat trigeminal nerve cells; assay: Axon elongation effect on cultured rat trigeminal nerve cells; assay type: cell-based; conditions: 1 μM peptide, 24 hours; N=8; Dunnett's test vs control P<0.001; FIG. 5
Method: Rats (Sic: Sprague-Dawley, 17-day-old, including female and male) purchased from Japan SLC, Inc. were euthanized by carbon dioxide gas inhalation and the trigeminal ganglion was harvested. The harvested trigeminal ganglion was washed with Hanks' balanced salt solution (HBSS) and then treated with collagenase A (Roche) for 30 minutes at 37° C. A neuron dispersion (Wako) was then used according to protocol for dispersion of the cells. Debris removal solution (Miltenyi biotec) and Myelin removal beads II (Miltenyi biotec) were used according to protocol to remove the debris and myelin. After suspending the isolated trigeminal nerve cells in culture solution, they were seeded onto a polylysine/laminin-coated 8-well chamber slide (Corning) at 2.5×10^3 cells/well. The culture solution used was Neurobasal-A containing B27 supplement (final concentration: 2%) and GlutaMAX (final concentration: 2 mM) and penicillin/streptomycin (final concentration: 1%). The culturing conditions were a carbon dioxide concentration of 5%, an air concentration of 95%, a humidity of 100% and a temperature of 37° C. […] The control was replaced with peptide-free culture solution. Culture medium replacement was followed by further culturing for 24 hours.
The culture medium was replaced with peptide-containing culture solution, and the rat trigeminal nerve cells cultured for 24 hours were immersed in a 2% paraformaldehyde solution at room temperature for 20 minutes for fixing. The cells were washed with PBS, and then 2% bovine serum albumin containing 0.1% TritonX-100 was added and reaction was conducted for 30 minutes. After washing with PBS, it was reacted with phospho-neurofilament H antibody (Merck, MAB1592-C) specifically recognizing neurofilaments forming the neuron bodies and neurites, for 1 hour at room temperature. After reaction for 1 hour, a fluorescent-labeled secondary antibody (Invitrogen Corp., #A-11031) was reacted at room temperature for 1 hour for fluorescent staining of the sample, and the stained cells were observed under a fluorescent microscope. The stained cell image was captured as an image from the fluorescent microscope and loaded into a computer.
In order to evaluate the extent of neurite formation by the rat trigeminal nerve cells, cells with neurites having lengths of at least twice the cell body diameter in the stained cell image in the computer were counted as neurite-forming cells, and the percentage (%) of this number of cells over the total cell count was calculated (Otori Y. Wei J Y, Barnstable C J. Invest. Ophthalmol Vis Sci (1998) 39, 972-981). The significant difference with respect to the control was determined by Dunnett's test (P<0.001).

[4] = molecular target: T2, PAC1 receptor (UniProt P41586 21-468, limits assumed); assay: cell-based or functional assay
T2 sequence (looked up): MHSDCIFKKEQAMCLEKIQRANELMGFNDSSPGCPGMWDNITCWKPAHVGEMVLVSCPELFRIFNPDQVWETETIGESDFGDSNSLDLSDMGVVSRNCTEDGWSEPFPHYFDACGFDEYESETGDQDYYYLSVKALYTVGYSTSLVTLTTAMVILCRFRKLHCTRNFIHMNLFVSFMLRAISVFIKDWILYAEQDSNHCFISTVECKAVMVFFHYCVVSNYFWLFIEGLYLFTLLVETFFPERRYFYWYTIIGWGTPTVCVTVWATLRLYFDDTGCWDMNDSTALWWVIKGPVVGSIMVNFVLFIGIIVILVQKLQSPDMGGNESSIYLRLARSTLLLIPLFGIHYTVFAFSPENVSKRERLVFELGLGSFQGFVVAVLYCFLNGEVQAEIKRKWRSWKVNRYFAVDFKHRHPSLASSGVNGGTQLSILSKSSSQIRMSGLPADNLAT

[5] = molecular target: T3, VPAC1 receptor (UniProt P32241 31-457, limits assumed); assay: cell-based or functional assay
T3 sequence (looked up): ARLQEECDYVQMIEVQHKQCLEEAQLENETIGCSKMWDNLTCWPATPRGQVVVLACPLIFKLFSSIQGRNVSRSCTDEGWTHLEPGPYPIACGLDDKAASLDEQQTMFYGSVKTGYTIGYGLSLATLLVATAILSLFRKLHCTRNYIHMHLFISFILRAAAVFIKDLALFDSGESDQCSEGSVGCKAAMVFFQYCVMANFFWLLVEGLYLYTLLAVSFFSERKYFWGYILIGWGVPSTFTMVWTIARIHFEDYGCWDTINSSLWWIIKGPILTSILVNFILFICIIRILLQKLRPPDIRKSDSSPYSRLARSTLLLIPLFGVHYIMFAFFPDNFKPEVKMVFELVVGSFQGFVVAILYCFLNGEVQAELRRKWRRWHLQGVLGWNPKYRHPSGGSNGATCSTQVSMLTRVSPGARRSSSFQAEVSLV

| Molecule | axon elongation (percentage of neurite-forming cells) [3] | EC50 (PAC1R), cAMP inducing effect [4] [nM] | EC50 (VPAC1R), cAMP inducing effect [5] [nM] | also measured |
| --- | --- | --- | --- | --- |
| CC[C@H](C)[C@H](NC(=O)CNC(=O)[C@H](Cc1nnn[nH]1)NC(=O)[C@H](CO)NC(=O)[C@H](Cc1c[nH]cn1)NC(C)=O)C(=O)N[C@@H](Cc1ccccc1)C(=O)N[C@H](C(=O)N[C@@H](Cc1nnn[nH]1)C(=O)N[C@@H](CO)C(=O)N[C@@H](Cc1ccc(O)cc1)C(=O)N[C@@H](CO)C(=O)N[C@@H](CCCNC(=N)N)C(=O)N[C@@H](Cc1ccc(O)cc1)C(=O)N[C@@H](CCCNC(=N)N)C(=O)N[C@@H](CCCCN)C(=O)N[C@@H](CCC(N)=O)C(=O)N[C@@H](C)C(=O)N[C@@H](C)C(=O)N[C@H](C(=O)N[C@@H](CCCCN)C(=O)N[C@@H](CCCCN)C(=O)N[C@@H](Cc1ccc(O)cc1)C(=O)N[C@@H](CC(C)C)C(=O)N[C@@H](C)C(=O)N[C@@H](C)C(=O)N[C@H](C(=O)N[C@@H](CC(C)C)C(N)=O)C(C)C)C(C)C)[C@@H](C)O [Peptide 18] (Ac-HS[Ala(1H-tetrazol-5-yl)]GIFT[Ala(1H-tetrazol-5-yl)]SYSRYRKQAAVKKYLAAVL-NH2) | exhibited axon elongation-promoting effects |  |  | remaining rate after correction for water, 60° C., 1 week preservation ([1]; Table 7): 96.7%; remaining rate after correction for water, 60° C., 2 weeks preservation ([1]; Table 7): 90.6%; EC50 [2]: 0.061 nM |
| CC[C@H](C)[C@H](NC(=O)[C@H](C)NC(=O)[C@H](Cc1nnn[nH]1)NC(=O)[C@H](CO)NC(=O)[C@H](Cc1c[nH]cn1)NS(C)(=O)=O)C(=O)N[C@@H](Cc1ccccc1)C(=O)N[C@H](C(=O)N[C@@H](Cc1nnn[nH]1)C(=O)N[C@@H](CO)C(=O)N[C@@H](Cc1ccc(O)cc1)C(=O)N[C@@H](CO)C(=O)N[C@@H](CCCNC(=N)N)C(=O)N[C@@H](Cc1ccc(O)cc1)C(=O)N[C@@H](CCCNC(=N)N)C(=O)N[C@@H](CCCCN)C(=O)N[C@@H](CCC(N)=O)C(=O)N[C@@H](C)C(=O)N[C@@H](C)C(=O)N[C@H](C(=O)N[C@@H](CCCCN)C(=O)N[C@@H](CCCCN)C(=O)N[C@@H](Cc1ccc(O)cc1)C(=O)N[C@@H](CC(C)C)C(=O)N[C@@H](C)C(=O)N[C@@H](C)C(=O)N[C@H](C(=O)N[C@@H](CC(C)C)C(N)=O)C(C)C)C(C)C)[C@@H](C)O [Peptide 31] (Ms-HS[Ala(1H-tetrazol-5-yl)]AIFT[Ala(1H-tetrazol-5-yl)]SYSRYRKQAAVKKYLAAVL-NH2) | exhibited axon elongation-promoting effects |  |  | remaining rate after correction for water, 60° C., 2 weeks preservation ([1]; Table 7-2): 90.1% |
| CC[C@H](C)[C@H](NC(=O)CNC(=O)[C@H](Cc1nnn[nH]1)NC(=O)[C@H](CO)NC(=O)[C@H](Cc1c[nH]cn1)NS(C)(=O)=O)C(=O)N[C@@H](Cc1ccccc1)C(=O)N[C@H](C(=O)N[C@@H](Cc1nnn[nH]1)C(=O)N[C@@H](CO)C(=O)N[C@@H](Cc1ccc(O)cc1)C(=O)N[C@@H](CO)C(=O)N[C@@H](CCCNC(=N)N)C(=O)N[C@@H](Cc1ccc(O)cc1)C(=O)N[C@@H](CCCNC(=N)N)C(=O)N[C@@H](CCCCN)C(=O)N[C@@H](CCC(N)=O)C(=O)N[C@@H](CC(C)C)C(=O)N[C@@H](C)C(=O)N[C@H](C(=O)N[C@@H](CCCCN)C(=O)N[C@@H](CCCCN)C(=O)N[C@@H](Cc1ccc(O)cc1)C(=O)N[C@@H](CC(C)C)C(=O)N[C@@H](C)C(=O)N[C@@H](C)C(=O)N[C@H](C(=O)N[C@@H](CC(C)C)C(N)=O)C(C)C)C(C)C)[C@@H](C)O [Peptide 12] (Ms-HS[Ala(1H-tetrazol-5-yl)]GIFT[Ala(1H-tetrazol-5-yl)]SYSRYRKQLAVKKYLAAVL-NH2) | exhibited axon elongation-promoting effects |  |  | remaining rate after correction for water, 60° C., 1 week preservation ([1]; Table 7): 97.0%; remaining rate after correction for water, 60° C., 2 weeks preservation ([1]; Table 7): 93.6% |
| HSXGIFTXSYSRYRKQLAVKKYLAAVL (N-terminal acetyl (Ac-); Tz (aspartic acid with carboxyl group replaced by tetrazole) at positions 3 and 8; C-terminal amide (NH2)) [Peptide 9] |  | 0.063 | 0.043 |  |
| HSXGIFTXSYSRYRKQLAVKKYLAAVL (Tz (aspartic acid with carboxyl group replaced by tetrazole) at positions 3 and 8; C-terminal amide (NH2)) [Peptide 7] |  | 0.112 | 0.114 |  |
| HSXGIFTXSYSRYRKQXAVKKYLAAVL (Tz (aspartic acid with carboxyl group replaced by tetrazole) at positions 3 and 8; norleucine at position 17; C-terminal amide (NH2)) [Peptide 6] |  | 0.079 | 0.093 |  |
| HSXGIFTXSYSRYRKQXAVKKYLAAVL (N-terminal acetyl (Ac-); Tz (aspartic acid with carboxyl group replaced by tetrazole) at positions 3 and 8; norleucine at position 17; C-terminal amide (NH2)) [Peptide 8] |  | 0.072 | 0.046 |  |

— patent publication US20220202905A1, “COMPOSITION FOR PREVENTING OR TREATING NEUROTROPHIC KERATITIS WHICH CONTAINS PACAP PEPTIDE OR STABILIZED PACAP PEPTIDE” (SENJU PHARMACEUTICAL CO., LTD., priority 2019, published 2022)
